Source: the NIST ThermoML archive (doi:10.1016/j.jct.2010.12.022)
Several values for one entry are separate records, joined by “and”; a condition that tells them apart may be missing. Equal values may be shown once. ± gives the expanded uncertainty stated by the source.

Settings: Crystal, Calculated from knudsen effusion weight loss

c1ccc(-c2cc(-c3ccccc3)cc(-c3ccccc3)c2)cc1 [1,3,5-triphenylbenzene]
Settings	vapor or sublimation pressure
404.34 K	9.95e-05 ± 5e-06 kPa
405.34 K	0.0001076 ± 5.4e-06 kPa
407.27 K	0.000136 ± 7e-06 kPa
408.34 K	0.0001462 ± 7.3e-06 kPa
408.35 K	0.0001487 ± 7.5e-06 kPa
410.36 K	0.0001809 ± 9.1e-06 kPa
412.35 K	0.0002238 ± 1.1e-05 kPa and 0.0002202 ± 1.1e-05 kPa
413.28 K	0.000252 ± 1.3e-05 kPa
414.37 K	0.0002718 ± 1.4e-05 kPa
416.35 K	0.0003305 ± 1.7e-05 kPa
416.37 K	0.0003361 ± 1.7e-05 kPa
418.28 K	0.000412 ± 2.1e-05 kPa
418.39 K	0.000405 ± 2e-05 kPa
420.36 K	0.0004929 ± 2.5e-05 kPa
420.39 K	0.0005004 ± 2.5e-05 kPa
422.41 K	0.000601 ± 3e-05 kPa
423.28 K	0.000671 ± 3.4e-05 kPa
424.37 K	0.000729 ± 3.7e-05 kPa
424.42 K	0.0007385 ± 3.8e-05 kPa
426.43 K	0.0008947 ± 4.5e-05 kPa
428.29 K	0.001087 ± 0.00011 kPa
428.38 K	0.00108 ± 0.00011 kPa
428.45 K	0.001096 ± 0.00011 kPa

O=C1c2ccccc2-c2cccc3cccc1c23 [7H-benz[de]anthracen-7-one]
Settings	vapor or sublimation pressure [kPa]
388.22 K	0.0001308 ± 6.6e-06
389.22 K	0.0001419 ± 7.1e-06
390.22 K	0.0001594 ± 8e-06
391.22 K	0.0001742 ± 8.7e-06
392.19 K	0.0001926 ± 9.7e-06
392.22 K	0.0001937 ± 9.7e-06
393.23 K	0.0002126 ± 1.1e-05
394.2 K	0.000232 ± 1.2e-05
394.23 K	0.0002331 ± 1.2e-05
395.24 K	0.0002574 ± 1.3e-05
396.2 K	0.0002786 ± 1.4e-05
396.23 K	0.0002797 ± 1.4e-05
397.24 K	0.0003067 ± 1.5e-05
398.2 K	0.0003364 ± 1.7e-05
398.23 K	0.0003376 ± 1.7e-05
399.24 K	0.0003702 ± 1.9e-05
400.21 K	0.0004108 ± 2.1e-05
400.24 K	0.000412 ± 2.1e-05
401.24 K	0.0004472 ± 2.2e-05
402.21 K	0.0004911 ± 2.5e-05
402.24 K	0.0004922 ± 2.5e-05
403.25 K	0.000532 ± 2.7e-05
404.21 K	0.0005813 ± 2.9e-05
406.21 K	0.0007014 ± 3.5e-05
408.22 K	0.0008383 ± 4.2e-05

c1ccc2cc3ccccc3cc2c1 [anthracene]
Settings	vapor or sublimation pressure
323.31 K	2.21e-05 ± 1.1e-06 kPa
327.16 K	3.51e-05 ± 1.8e-06 kPa
331.27 K	5.47e-05 ± 2.8e-06 kPa
335.32 K	8.42e-05 ± 4.2e-06 kPa
339.31 K	0.00013 ± 7e-06 kPa
343.32 K	0.000197 ± 1e-05 kPa
347.26 K	0.000281 ± 1.5e-05 kPa
347.33 K	0.000289 ± 1.5e-05 kPa
351.27 K	0.00043 ± 2.2e-05 kPa
351.33 K	0.000426 ± 2.1e-05 kPa and 0.000424 ± 2.2e-05 kPa
355.26 K	0.000604 ± 3.5e-05 kPa
355.33 K	0.000634 ± 3.6e-05 kPa
357.34 K	0.000783 ± 3.9e-05 kPa
359.26 K	0.000876 ± 5.9e-05 kPa
359.33 K	0.000945 ± 6.2e-05 kPa
363.34 K	0.001374 ± 0.00015 kPa
367.27 K	0.001898 ± 0.00022 kPa
367.35 K	0.001967 ± 0.00023 kPa
371.35 K	0.002859 ± 0.00035 kPa
375.36 K	0.004145 ± 0.00054 kPa
